How the values were obtained:
[1] = biological target: Protein farnesyltransferase (Homo sapiens, UniProt P49354+P49356); test: Inhibition of Farnesyltransferase; assay type: protein-complex assay
[2] = Inhibition of Geranylgeranyl transferase type I; design: species or system Homo sapiens

| Structure (SMILES) | IC50 [1] | IC50 [2] |
| --- | --- | --- |
| O=Cc1cc(O)c(C=O)c(C(=O)c2cccc(O)c2O)c1 | 3.5 µM | 70 µM |
| CC(=O)Oc1cc(C=O)cc(C(=O)c2cccc(OC(C)=O)c2OC(C)=O)c1C=O | 2.4 µM | 85 µM |

From ChEMBL document CHEMBL1130550, “Sch 207278: a novel farnesyl protein transferase inhibitor from an unidentified fungus” (Bioorg Med Chem Lett, 1997)
